How the values were obtained:
[1] = biological target: T1, c-Met (Homo sapiens, UniProt P08581); assay: In vitro c-Met enzymatic assay (HTRF); type: biochemical; settings: HTRF assay; mean ± SD, triplicate; read-out: IC50 against c-Met
T1 construct: purchased Invitrogen (Waltham, MA)
Method: Inhibition of target compounds on c-Met kinase activity was measured by using the homogeneous time-resolved fluorescence (HTRF) assay.
The tyrosine kinases inhibitory activities of target compounds were evaluated in 384-well microtiter plates using purified kinases purchased from Invitrogen (Waltham, MA) by homogeneous time-resolved fluorescence (HTRF) assay. The HTRF KinEASE TK kit was performed according to the instructions. After the kinases and test compounds were incubated at 25–30 °C for 5 min, the kinase reactions were initiated by addition of 39 μL of kinase reaction buffer solution and incubated at 25–30 °C for 30 min. The reactions were quenched by addition 10 µL mixed detection solution. […] The inhibition rate (%) was calculated using the following equation: inhibition rate = [(activity of enzyme with tested compound – min)/(max – min)] × 100 (max: the enzyme activity in the presence of enzyme, substrates and cofactors; min: the enzyme activity in the presence of substrates, cofactors and in the absence of enzyme). IC50 value was calculated from the inhibition curve using GraphPad Prism 5.0 software (La Jolla, CA).

[2] = test system: c-Met phosphorylation in MKN-45 cells; assay: Western blotting analysis of c-Met phosphorylation; type: cell-based, human; settings: 24 h, 0, 2.5, 5.0, and 10.0 μM
Method: To obtain further insight into the mechanism of 51am induced apoptosis, western blot assay was carried out to investigate the effect of 51am on the phosphorylation of c-Met in living cells. MKN-45 cells were treated with 51am for 24 h in a series of concentrations (0, 2.5, 5.0, and 10.0 μM) using DMSO as the negative control, and the level of GAPDH served as the loading control.
MKN-45 cells were incubated with the test compound at various concentrations for 24 h. After incubation, cells were harvested in PBS solution containing proteinase inhibitors and phosphatase inhibitors, and then sonicated. Whole cell lysates were separated by sodium dodecyl sulphate-polyacrylamide gel electrophoresis (SDS-PAGE) and transferred to nitrocellulose membrane (Beyotime Biotechnology, Shanghai, China). The membrane was incubated with primary antibody followed by labelling with horseradish peroxidase (HRP)-conjugated secondary antibody (Beyotime Biotechnology, Shanghai, China). The blots were developed with enhanced chemiluminescence and visualised by an LAS4000 imager (Fuji Photo Film, Minato City, Japan).

[3] = biological target: T2, c-Met H1094R (Homo sapiens, UniProt P08581, H1094R); assay: Tyrosine kinase HTRF assay, c-Met H1094R; type: biochemical
T2 construct: purchased Invitrogen (Waltham, MA)
Method: (§1) On the other hand, comprehensive understanding the off-target kinase inhibition is critical for any kinase inhibitors, particularly to help explain the correlations between efficacy and potential side effects. […] The reactions were quenched by addition 10 µL mixed detection solution. […] The inhibition rate (%) was calculated using the following equation: inhibition rate = [(activity of enzyme with tested compound – min)/(max – min)] × 100 (max: the enzyme activity in the presence of enzyme, substrates and cofactors; min: the enzyme activity in the presence of substrates, cofactors and in the absence of enzyme). IC50 value was calculated from the inhibition curve using GraphPad Prism 5.0 software (La Jolla, CA).

[4] = biological target: T3, c-Met D1228H (Homo sapiens, UniProt P08581, D1228H); assay: Tyrosine kinase HTRF assay, c-Met D1228H; type: biochemical
T3 construct: purchased Invitrogen (Waltham, MA)
T3 sequence (P08581 25-1390 D1228H): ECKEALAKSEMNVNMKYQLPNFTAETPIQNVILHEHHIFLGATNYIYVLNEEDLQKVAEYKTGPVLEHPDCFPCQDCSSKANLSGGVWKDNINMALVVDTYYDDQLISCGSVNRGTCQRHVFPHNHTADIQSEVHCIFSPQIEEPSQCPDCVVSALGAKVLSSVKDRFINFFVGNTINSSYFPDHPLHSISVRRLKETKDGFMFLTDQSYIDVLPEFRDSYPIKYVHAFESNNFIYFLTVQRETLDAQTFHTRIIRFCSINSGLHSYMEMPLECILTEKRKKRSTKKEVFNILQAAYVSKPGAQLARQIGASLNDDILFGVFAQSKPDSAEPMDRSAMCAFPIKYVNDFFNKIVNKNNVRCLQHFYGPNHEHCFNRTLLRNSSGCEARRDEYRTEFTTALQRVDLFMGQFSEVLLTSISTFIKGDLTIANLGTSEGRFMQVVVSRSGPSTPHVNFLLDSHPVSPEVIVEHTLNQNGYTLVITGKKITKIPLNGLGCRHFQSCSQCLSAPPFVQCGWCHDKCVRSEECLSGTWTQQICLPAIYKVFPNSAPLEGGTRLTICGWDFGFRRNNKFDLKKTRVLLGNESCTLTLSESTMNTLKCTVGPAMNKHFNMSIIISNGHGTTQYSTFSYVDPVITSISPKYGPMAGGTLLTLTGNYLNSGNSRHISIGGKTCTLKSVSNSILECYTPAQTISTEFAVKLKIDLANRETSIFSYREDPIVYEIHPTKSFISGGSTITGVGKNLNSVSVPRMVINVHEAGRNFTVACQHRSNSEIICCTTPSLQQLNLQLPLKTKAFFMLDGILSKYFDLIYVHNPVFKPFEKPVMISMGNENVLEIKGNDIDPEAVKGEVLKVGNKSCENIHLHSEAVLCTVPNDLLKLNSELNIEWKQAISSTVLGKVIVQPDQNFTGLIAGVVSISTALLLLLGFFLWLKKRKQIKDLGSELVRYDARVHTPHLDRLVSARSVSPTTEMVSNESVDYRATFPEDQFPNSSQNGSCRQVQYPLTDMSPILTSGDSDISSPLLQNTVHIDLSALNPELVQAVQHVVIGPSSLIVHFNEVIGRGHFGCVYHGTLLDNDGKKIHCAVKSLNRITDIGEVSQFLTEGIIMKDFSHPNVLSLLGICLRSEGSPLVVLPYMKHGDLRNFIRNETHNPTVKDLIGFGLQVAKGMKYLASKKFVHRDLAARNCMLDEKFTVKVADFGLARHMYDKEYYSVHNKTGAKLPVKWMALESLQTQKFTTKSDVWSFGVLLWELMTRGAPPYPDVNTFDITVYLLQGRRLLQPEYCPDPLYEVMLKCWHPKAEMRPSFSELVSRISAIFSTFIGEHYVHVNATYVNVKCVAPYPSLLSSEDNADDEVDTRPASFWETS
Method: as §1

[5] = biological target: T4, c-Met Y1230H (Homo sapiens, UniProt P08581, Y1230H); assay: Tyrosine kinase HTRF assay, c-Met Y1230H; type: biochemical
T4 construct: purchased Invitrogen (Waltham, MA)
Method: as §1

[6] = biological target: T5, c-Met Y1235D (Homo sapiens, UniProt P08581, Y1235D); assay: Tyrosine kinase HTRF assay, c-Met Y1235D; type: biochemical
T5 construct: purchased Invitrogen (Waltham, MA)
Method: as §1

[7] = biological target: T6, c-Met M1250T (Homo sapiens, UniProt P08581, M1250T); assay: Tyrosine kinase HTRF assay, c-Met M1250T; type: biochemical
T6 construct: purchased Invitrogen (Waltham, MA)
T6 sequence (P08581 25-1390 M1250T): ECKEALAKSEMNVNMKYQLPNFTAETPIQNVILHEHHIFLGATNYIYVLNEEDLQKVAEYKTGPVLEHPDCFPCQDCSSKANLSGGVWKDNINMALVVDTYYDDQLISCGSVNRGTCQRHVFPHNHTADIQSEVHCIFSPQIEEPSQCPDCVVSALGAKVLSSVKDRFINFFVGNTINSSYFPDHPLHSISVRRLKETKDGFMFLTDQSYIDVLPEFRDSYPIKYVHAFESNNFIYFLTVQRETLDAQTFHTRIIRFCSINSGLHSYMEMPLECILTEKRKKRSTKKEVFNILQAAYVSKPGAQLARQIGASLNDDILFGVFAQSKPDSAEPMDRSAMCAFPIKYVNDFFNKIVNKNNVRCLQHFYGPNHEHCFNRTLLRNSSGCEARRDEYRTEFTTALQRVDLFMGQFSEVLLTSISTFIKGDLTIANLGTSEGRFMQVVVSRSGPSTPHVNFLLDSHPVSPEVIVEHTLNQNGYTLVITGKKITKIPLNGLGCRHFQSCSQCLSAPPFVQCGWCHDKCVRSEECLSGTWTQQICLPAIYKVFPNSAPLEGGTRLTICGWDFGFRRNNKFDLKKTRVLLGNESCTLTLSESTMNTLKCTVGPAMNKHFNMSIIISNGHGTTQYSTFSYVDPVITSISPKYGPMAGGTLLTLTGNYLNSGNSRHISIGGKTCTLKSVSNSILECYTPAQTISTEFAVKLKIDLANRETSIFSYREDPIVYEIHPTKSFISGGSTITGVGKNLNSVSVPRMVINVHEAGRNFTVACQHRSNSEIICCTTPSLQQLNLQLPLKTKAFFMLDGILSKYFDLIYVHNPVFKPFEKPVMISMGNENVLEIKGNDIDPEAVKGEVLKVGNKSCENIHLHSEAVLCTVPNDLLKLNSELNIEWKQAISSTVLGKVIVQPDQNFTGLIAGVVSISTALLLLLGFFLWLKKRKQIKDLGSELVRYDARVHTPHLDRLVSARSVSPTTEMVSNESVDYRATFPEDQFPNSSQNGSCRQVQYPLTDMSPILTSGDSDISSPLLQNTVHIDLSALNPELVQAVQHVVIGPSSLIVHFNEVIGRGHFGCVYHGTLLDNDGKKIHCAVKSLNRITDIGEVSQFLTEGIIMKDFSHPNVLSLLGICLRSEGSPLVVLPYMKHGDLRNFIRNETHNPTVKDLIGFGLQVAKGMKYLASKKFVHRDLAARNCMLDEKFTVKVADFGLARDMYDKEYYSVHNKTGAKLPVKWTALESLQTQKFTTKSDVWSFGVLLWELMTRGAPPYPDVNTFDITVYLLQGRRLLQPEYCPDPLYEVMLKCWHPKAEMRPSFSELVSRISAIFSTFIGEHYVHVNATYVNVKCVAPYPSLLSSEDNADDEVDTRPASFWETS
Method: as §1

[8] = biological target: T7, c-kit (Homo sapiens, UniProt P10721); assay: Tyrosine kinase HTRF assay, c-kit; type: biochemical
T7 construct: purchased Invitrogen (Waltham, MA)
Method: as §1

[9] = biological target: T8, Ron (Homo sapiens, UniProt Q04912); assay: Tyrosine kinase HTRF assay, Ron; type: biochemical
T8 construct: purchased Invitrogen (Waltham, MA)
Method: as §1

[10] = biological target: T9, PDGFRα (Homo sapiens, UniProt P16234); assay: Tyrosine kinase HTRF assay, PDGFRα; type: biochemical
T9 construct: purchased Invitrogen (Waltham, MA)
Method: as §1

[11] = biological target: T10, PDGFRβ (Homo sapiens, UniProt P09619); assay: Tyrosine kinase HTRF assay, PDGFRβ; type: biochemical
T10 construct: purchased Invitrogen (Waltham, MA)
Method: as §1

[12] = biological target: T11, VEGFR-2 (Homo sapiens, UniProt P35968); assay: Tyrosine kinase HTRF assay, VEGFR-2; type: biochemical
T11 construct: purchased Invitrogen (Waltham, MA)
Method: as §1

[13] = biological target: T12, EGFR (Homo sapiens, UniProt P00533); assay: Tyrosine kinase HTRF assay, EGFR; type: biochemical
T12 construct: purchased Invitrogen (Waltham, MA)
Method: as §1

[14] = biological target: T13, Flt-3 (Homo sapiens, UniProt P36888); assay: Tyrosine kinase HTRF assay, Flt-3; type: biochemical
T13 construct: purchased Invitrogen (Waltham, MA)
T13 sequence (P36888 27-993): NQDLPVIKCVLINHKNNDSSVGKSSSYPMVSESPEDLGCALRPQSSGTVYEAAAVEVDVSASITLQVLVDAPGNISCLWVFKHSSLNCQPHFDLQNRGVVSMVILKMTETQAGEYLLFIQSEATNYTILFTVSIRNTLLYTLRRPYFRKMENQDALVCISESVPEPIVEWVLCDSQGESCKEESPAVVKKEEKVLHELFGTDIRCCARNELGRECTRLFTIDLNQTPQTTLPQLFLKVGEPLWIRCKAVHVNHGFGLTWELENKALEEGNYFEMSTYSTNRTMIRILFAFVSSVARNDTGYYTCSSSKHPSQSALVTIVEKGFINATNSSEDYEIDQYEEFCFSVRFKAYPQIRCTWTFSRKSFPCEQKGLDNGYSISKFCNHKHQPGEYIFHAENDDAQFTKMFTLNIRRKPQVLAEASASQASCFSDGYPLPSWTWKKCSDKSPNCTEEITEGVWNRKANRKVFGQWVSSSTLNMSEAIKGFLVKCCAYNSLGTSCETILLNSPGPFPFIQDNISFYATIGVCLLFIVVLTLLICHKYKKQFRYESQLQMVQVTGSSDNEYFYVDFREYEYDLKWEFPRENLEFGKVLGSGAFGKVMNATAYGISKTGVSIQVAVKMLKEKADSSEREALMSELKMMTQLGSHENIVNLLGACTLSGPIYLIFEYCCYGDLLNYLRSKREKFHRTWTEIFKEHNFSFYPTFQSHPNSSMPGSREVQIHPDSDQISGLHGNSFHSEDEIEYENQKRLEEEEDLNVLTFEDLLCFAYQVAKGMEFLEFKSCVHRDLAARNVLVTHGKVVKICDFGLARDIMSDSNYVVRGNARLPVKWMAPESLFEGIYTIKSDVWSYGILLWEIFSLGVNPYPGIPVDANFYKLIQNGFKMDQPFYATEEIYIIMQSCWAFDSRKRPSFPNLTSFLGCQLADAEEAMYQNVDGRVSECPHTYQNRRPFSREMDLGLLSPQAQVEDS
Method: as §1

[15] = biological target: T14, Flt-4 (Homo sapiens, UniProt P35916); assay: Tyrosine kinase HTRF assay, Flt-4; type: biochemical
T14 construct: purchased Invitrogen (Waltham, MA)
Method: as §1

[16] = Pharmacokinetic study in BALB/c mice; type: in vivo; settings: male, mouse, plasma
Method: Identification of drugs with an acceptable balance of potency, physical properties, and pharmacokinetics (PK) has always been a challenge that often hinders evaluation of the compounds in xenograft models and therapeutic use in clinical practice. Therefore, the PK profile of compound 51am was evaluated in BALB/c mice after intravenous (i.v.) injection and oral administration (p.o.) because of its excellent in vitro activity. […] Based on the good overall PK profile, 51am could be a potential candidate for cancer therapy.
The experimental procedures and the animal use and care protocols were approved by the Committee on Ethical Use of Animals of Shenzhen Second People’s Hospital. Each male BALB/c mice received a single compound 51am as a solution in PEG 400/water (70:30) by either oral route (10 mg/kg) or i.v. route (1.5 mg/kg). Blood samples were collected into the microcentrifuge tube containing heparin at time points 0 (prior to dosing) 5, 10, 20, 30, 60, 180, 360, 480, 600, 720, 1080, and 1440 min after dosing. The blood samples were centrifuged; the obtained plasma was separated and stored at –20 °C. All samples for 51am were measured by liquid chromatography–tandem mass spectrometry (LC/MS/MS).

[17] = test system: PDGFRα, PDGFRβ, VEGFR-2, and Flt-4; assay: Kinase selectivity relative to c-Met; type: biochemical
Method: as §1

[18] = test system: A549; assay: MTT antiproliferative assay, A549; settings: Homo sapiens, A549, 48 h, read-out: IC50 A549
Method: (§2) MTT assay was used to determine the cytotoxic activity of target compounds against different cell lines. […] Then, the cells were treated with five doses of test compounds (pre-dissolved in DMSO), and 0.1% DMSO was used as a negative control. […] The results expressed as IC50 were the average of three determinations calculated by using the Bacus Laboratories Incorporated Slide Scanner (Bliss) software.

[19] = test system: HT-29; assay: MTT antiproliferative assay, HT-29; settings: Homo sapiens, HT-29, 48 h, read-out: IC50 HT-29
Method: as §2

[20] = test system: MKN-45; assay: MTT antiproliferative assay, MKN-45; settings: Homo sapiens, MKN-45, 48 h, read-out: IC50 MKN-45
Method: as §2

[21] = test system: MDA-MB-231; assay: MTT antiproliferative assay, MDA-MB-231; settings: Homo sapiens, MDA-MB-231, 48 h, read-out: IC50 MDA-MB-231
Method: as §2

[22] = test system: FHC; assay: MTT cytotoxicity assay, normal FHC cells; settings: Homo sapiens, 48 h, read-out: IC50 FHC
Method: as §2

[23] = test system: HUVEC; assay: MTT cytotoxicity assay, normal HUVEC cells; settings: Homo sapiens, 48 h, read-out: IC50 HUVEC
Method: as §2

[24] = test system: MKN-45 cells; assay: Apoptosis by Annexin V/PI double staining, flow cytometry; settings: 24 h, control 6.02%
Method: Apoptosis was detected by an Annexin V/propidium iodide (PI) double staining kit (Beyotime Biotechnology, Shanghai, China). […] Cells were harvested by trypsinisation and washed with ice-cold PBS solution. Cells were labelled with annexin V and PI and incubated at room temperature for 30 min in the dark. The labelled cells were analysed by a FACScan flow cytometer (Becton Dickinson, Franklin Lakes, NJ).

[25] = test system: c-Met and its downstream protein Akt in MDA-MB-231 cells; design: method as in earlier work; settings: cited from earlier work

T1 sequence (P08581 25-1390): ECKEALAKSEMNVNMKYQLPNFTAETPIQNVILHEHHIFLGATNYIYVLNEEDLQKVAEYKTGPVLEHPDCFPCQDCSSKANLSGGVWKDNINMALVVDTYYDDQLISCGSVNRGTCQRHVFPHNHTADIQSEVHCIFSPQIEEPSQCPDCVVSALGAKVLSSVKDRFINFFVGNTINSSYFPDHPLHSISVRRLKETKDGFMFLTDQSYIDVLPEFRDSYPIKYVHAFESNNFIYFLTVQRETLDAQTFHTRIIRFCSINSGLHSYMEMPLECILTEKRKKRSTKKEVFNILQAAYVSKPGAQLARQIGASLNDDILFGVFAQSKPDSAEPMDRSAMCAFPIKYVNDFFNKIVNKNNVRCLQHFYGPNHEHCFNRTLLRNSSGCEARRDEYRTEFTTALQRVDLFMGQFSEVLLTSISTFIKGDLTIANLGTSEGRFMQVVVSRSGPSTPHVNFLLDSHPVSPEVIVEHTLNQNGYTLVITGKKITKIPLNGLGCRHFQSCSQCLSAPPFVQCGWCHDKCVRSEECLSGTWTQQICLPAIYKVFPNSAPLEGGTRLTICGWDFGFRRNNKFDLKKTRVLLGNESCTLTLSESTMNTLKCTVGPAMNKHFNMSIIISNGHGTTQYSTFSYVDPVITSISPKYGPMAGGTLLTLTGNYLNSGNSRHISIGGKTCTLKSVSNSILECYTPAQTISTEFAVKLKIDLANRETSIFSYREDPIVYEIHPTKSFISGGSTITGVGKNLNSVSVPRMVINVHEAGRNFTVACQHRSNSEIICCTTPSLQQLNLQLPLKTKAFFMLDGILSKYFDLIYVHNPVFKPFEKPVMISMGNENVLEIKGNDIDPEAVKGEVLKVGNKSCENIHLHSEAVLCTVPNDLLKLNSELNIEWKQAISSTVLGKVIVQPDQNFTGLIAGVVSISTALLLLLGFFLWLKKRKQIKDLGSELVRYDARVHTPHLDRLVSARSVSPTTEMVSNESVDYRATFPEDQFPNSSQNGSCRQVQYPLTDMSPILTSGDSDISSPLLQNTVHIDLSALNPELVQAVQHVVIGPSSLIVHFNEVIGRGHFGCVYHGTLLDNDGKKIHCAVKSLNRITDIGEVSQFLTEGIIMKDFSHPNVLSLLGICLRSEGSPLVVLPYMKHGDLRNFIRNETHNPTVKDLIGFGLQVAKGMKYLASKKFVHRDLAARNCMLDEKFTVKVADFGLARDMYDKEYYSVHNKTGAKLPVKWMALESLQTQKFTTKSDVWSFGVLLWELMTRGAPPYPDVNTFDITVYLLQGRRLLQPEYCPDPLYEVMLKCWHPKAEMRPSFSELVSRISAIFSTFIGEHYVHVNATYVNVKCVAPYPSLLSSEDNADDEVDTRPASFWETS

O=C(Nc1ccc(Oc2ccnc(Cl)c2Cl)c(F)c1)c1nc(-c2ccc(F)c(Cl)c2)cs1 [Compound 51am, 4-(3-Chloro-4-fluorophenyl)-N-(4-((2,3-dichloropyridin-4-yl)oxy)-3-fluorophenyl)thiazole-2-carboxamide]
IC50 [1]: 0.00254 ± 0.00049 µM
effect on c-Met phosphorylation (western blot) [2]: inhibited c-Met phosphorylation in a dose-dependent manner
IC50 [3]: 0.0936 µM
IC50 [4]: 0.0294 µM
IC50 [5]: 0.0458 µM
IC50 [6]: 0.0542 µM
IC50 [7]: 0.0265 µM
IC50 [8]: 0.00494 µM
IC50 [9]: 0.00383 µM
IC50 [10]: 0.425 µM
IC50 [11]: 0.513 µM
IC50 [12]: 0.527 µM
IC50 [13]: > 10 µM
IC50 [14]: 0.00612 µM
IC50 [15]: 0.276 µM
AUC(0-inf) ([16]; iv, i.v. (1.5 mg/kg)): 2500 ng·h/mL
Cmax ([16]; iv, i.v. (1.5 mg/kg)): 552 ng/mL
half-life ([16]; iv, i.v. (1.5 mg/kg)): 3.2 h
clearance ([16]; iv, i.v. (1.5 mg/kg), CL = dose/AUCi.v.): 10 mL/min/kg
bioavailability ([16]; oral, p.o. (10 mg/kg) vs i.v. (1.5 mg/kg), read-out: F (oral bioavailability)): 69%
AUC(0-inf) ([16]; po, p.o. (10 mg/kg)): 11500 ng·h/mL
Cmax ([16]; po, p.o. (10 mg/kg)): 1760 ng/mL
Tmax ([16]; po, p.o. (10 mg/kg)): 4.1 h
half-life ([16]; po, p.o. (10 mg/kg)): 5.6 h
fold less potent than against c-Met [17]: 108–207 fold
IC50 [18]: 0.83 ± 0.36 µM
IC50 [19]: 0.68 ± 0.09 µM
IC50 [20]: 0.092 ± 0.006 µM
IC50 [21]: 3.94 ± 1.32 µM
IC50 [22]: 8.63 ± 1.52 µM
IC50 [23]: 2.54 ± 0.46 µM
percentage of apoptotic cells ([24]; MKN-45, 0.4 μM): 14.74%
percentage of apoptotic cells ([24]; MKN-45, 0.8 μM): 19.83%
percentage of apoptotic cells ([24]; MKN-45, 1.2 μM): 38.54%

Cn1cc(-c2ccc3nnc(Sc4ccc5ncccc5c4)n3n2)cn1 [SGX523]
inhibition of phosphorylation of c-Met and Akt [25]: effectively inhibited the phosphorylation of c-Met and its downstream protein Akt

COc1cc2c(Oc3ccc(NC(=O)C4(C(=O)Nc5ccc(F)cc5)CC4)cc3F)ccnc2cc1OCCCN1CCOCC1 [Foretinib, reference compound]
IC50 [18]: 0.45 ± 0.05 µM
IC50 [19]: 0.37 ± 0.05 µM
IC50 [20]: 0.058 ± 0.006 µM
IC50 [21]: 0.89 ± 0.14 µM
IC50 [22]: 4.06 ± 0.75 µM
IC50 [23]: 0.68 ± 0.09 µM
percentage of apoptotic cells ([24]; MKN-45, 1.2 μM): 41.21%

Cc1ccc(-c2csc(C(=O)Nc3ccc(Oc4ccnc(Cl)c4)c(F)c3)n2)cc1 [Compound 51x, N-(4-((2-Chloropyridin-4-yl)oxy)-3-fluorophenyl)-4-(4-methylphenyl)thiazole-2-carboxamide]
IC50 [1]: 0.0315 ± 0.00425 µM
melting point: 157 to 159 °C
IC50 [18]: 8.65 ± 1.72 µM
IC50 [19]: 14.3 ± 2.13 µM
IC50 [20]: 3.46 ± 0.75 µM
IC50 [21]: 28.6 ± 1.85 µM
IC50 [22]: 43.4 ± 3.68 µM
IC50 [23]: 30.8 ± 2.43 µM
